From US10583120B2, “Composition having a muscle-relaxant and anti-inflammatory activity” (Kolinpharma S.p.A., priority 2014, dated 2020) come the findings set out here.

The subject of series [1] is IL-1β release from differentiated THP-1 monocytes. As to the kind of experiment: ELISA test (Test 1), release of IL-1β into culture medium. Format: cell-based, human. Particulars: positive control at 100 μM, LPS 1 μg/ml for 2 hours. A general note: An ELISA detects its analyte on a solid surface through an enzyme-linked reagent.
Series [2] concerns TNFα release from differentiated THP-1 monocytes. Put plainly: ELISA test (Test 1), release of TNFα into culture medium. Format: cell-based, human. Particulars: positive control at 100 μM, LPS 1 μg/ml for 2 hours.
For series [3], the system named is human skeletal muscle myotubes. As to the kind of experiment: Evaluation of the muscle-relaxant effect (Test 2), contractile activity of myotubes stimulated with carbacol. Format: cell-based. As to conditions: myotubes with carbacol 3 mM, FIG. 5A; at least partly restored during washing. How it is done:
The myoblasts were differentiated into myotubes in differentiation medium (DMEM: F12, with the addition of 2% of horse serum). The differentiated myotubes were used for the experiments from the fourth to the seventh day of maintenance in differentiation medium.
For the evaluation of the muscle-relaxant effect of MILESAX, human myoblasts were seeded onto microscope slides and, once they had reached at least about 70% confluence, they were maintained in differentiation medium for 4-7 days before being used for the experiments. The contractile activity of the myotubes was recorded with a TCS SP5 confocal microscope (Leica Microsystems) in transmitted-light mode with the 40× objective lens (HCX PL APO, 1.25 NA, Leica Microsystems) using the incubator associated with the microscope to maintain the cells under a controlled atmosphere (37° C., 5% CO2). […]
Not all the myotubes in the culture were capable of contracting, and similarly it was never possible to observe spontaneous contractions only in differentiation medium. […] The contractile activity of the identified active cell(s) was recorded with a confocal microscope in transmitted light, with an image acquired every 151 ms. […]

In another series the test system is THP-1 cells. As to conditions: positive controls at 100 μM. An excerpt:
The absorbance measured correlates directly with the number of live cells.

For the molecule `CC(C)Cc1ccc(C(C)C(=O)O)cc1` (stereo not drawn) [ibuprofen], in series [1], the “release of IL-1β” value is “no effect on the release of IL-1β”. The “release of TNFα relative to vehicle/control” value in series [2] is listed as “did not lead to any reduction in the release of TNFα”.
Regarding `COc1c(O[C@@H]2O[C@H](CO)[C@@H](O)[C@H](O)[C@H]2O)cc2c(c1OC)-c1ccc(SC)c(=O)cc1[C@@H](NC(C)=O)CC2` [Muscoril, thiocolchicoside], the “frequency of contractions per unit time (contractions per minute)” value in series [3] was “clear tendency”.
In the case of `O=C(O)Cc1ccccc1Nc1c(Cl)cccc1Cl` [diclofenac], the “release of IL-1β” value in series [1] is on record as “effective in reducing the release of IL-1β”. The “toxic effect on the cells (MTT test)” value with THP-1 cells is “no toxic effect on the cells”. For the same molecule, the “release of TNFα relative to vehicle/control” value in series [2] was “significantly reduced the release of TNFα”.
